Assay results taken from patent US20230019236A1, “PROTEIN TYROSINE PHOSPHATASE INHIBITORS AND METHODS OF USE THEREOF” (Calico Life Sciences LLC, priority 2019, published 2023).

Experiments:
[1] = target: T1, His tagged PTPN2 (TC45) protein (Homo sapiens, UniProt P17706); assay: Mobility Shift Assay used to determine potency of PTPN2 inhibitors; format: biochemical; conditions: Table 2; read-out: PTPN2 MSA IC50
T1 construct: made in house
T1 sequence (P17706 with tags, fused parts or gaps isoform P17706-2): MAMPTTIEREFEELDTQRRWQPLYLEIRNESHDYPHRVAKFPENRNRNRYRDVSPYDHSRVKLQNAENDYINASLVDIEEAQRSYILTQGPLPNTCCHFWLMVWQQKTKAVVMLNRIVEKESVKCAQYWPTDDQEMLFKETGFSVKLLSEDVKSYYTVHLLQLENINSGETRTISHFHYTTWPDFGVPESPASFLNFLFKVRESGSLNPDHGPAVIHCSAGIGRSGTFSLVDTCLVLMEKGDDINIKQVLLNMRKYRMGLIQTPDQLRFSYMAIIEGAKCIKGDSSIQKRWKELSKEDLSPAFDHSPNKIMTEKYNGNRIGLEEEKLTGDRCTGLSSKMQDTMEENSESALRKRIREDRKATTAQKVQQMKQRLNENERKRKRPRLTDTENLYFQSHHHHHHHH
Procedure: Example 292: Mobility Shift Assay used to determine potency of PTPN2 inhibitors
Compound activity was determined using in house His tagged PTPN2 (TC45) protein (SEQ ID NO: 1) in an in vitro enzymatic reaction. The enzymatic assay used to determine activity was a mobility shift assay using a LabChip EZ Reader by Caliper Life Sciences. The enzymatic reaction was carried out in assay buffer (50 mM HEPES pH 7.5, 1 mM EGTA, 10 mM EDTA, 0.01% Tween® 20, and 2 mM DTT). The compounds were dispensed on a white 384 well ProxiPlate™ (PerkinElmer Catalog#6008289) plate using the Labcyte Echo at varying concentrations (12 point, 1:3 dilution). The enzyme (at 0.5 nM) was incubated with compound for 10 minutes at room temperature. Then the substrate (phosphorylated insulin receptor probe sequence: ((OG488)—{NH—CH2—CH2—O—CH2—CH2—O—CH2—CO)—T—R—D—I—(PY)—E—T—D—Y—Y—R—K—K—NH2) (SEQ ID NO: 2) was added at 2 μM to the plates and incubated for another 10 minutes at room temperature. Finally, a quench solution (water and 4-bromo-3-(2-oxo-2-propoxyethoxy)-5-(3-{[1-(phenylmethanesulfonyl)piperidin-4-yl]amino}phenyl)thiophene-2-carboxylic acid) was added to the plates, which were then run on the EZ Reader (excitation 488 nm, emission 530 nm) to measure % conversion (the amount of phosphorylated substrate which was de-phosphorylated by PTPN2). […] The % inhibition was then used to calculate the IC50 values.

[2] = target: T2, His tagged full-length PTP1B protein (Homo sapiens, UniProt P18031); assay: Mobility Shift Assay (MSA) used to determine potency of PTP1B inhibitors; format: biochemical; conditions: Table 2
T2 construct: made in house
T2 sequence (P18031 with tags, fused parts or gaps): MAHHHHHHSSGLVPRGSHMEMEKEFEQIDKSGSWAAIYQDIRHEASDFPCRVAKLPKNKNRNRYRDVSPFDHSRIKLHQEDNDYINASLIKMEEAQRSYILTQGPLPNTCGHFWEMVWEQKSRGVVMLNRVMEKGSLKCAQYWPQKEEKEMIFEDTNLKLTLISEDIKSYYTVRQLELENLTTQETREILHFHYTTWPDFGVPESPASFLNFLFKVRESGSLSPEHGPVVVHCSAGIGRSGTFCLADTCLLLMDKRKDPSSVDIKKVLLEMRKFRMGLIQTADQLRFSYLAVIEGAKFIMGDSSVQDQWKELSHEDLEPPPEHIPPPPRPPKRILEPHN
Procedure: The enzymatic assay used to determine activity is a mobility shift assay using a LabChip EZ Reader by Caliper Life Sciences. The enzymatic reaction was carried out in assay buffer (50 mM HEPES pH 7.5, 1 mM EGTA, 10 mM EDTA, 0.01% Tween® 20, and 2 mM DTT). […] The enzyme (at 0.5 nM) was incubated with compound for 10 minutes at room temperature. […] The % inhibition was then used to calculate the IC50 values.

| IC50 [2] [nM] | SMILES | IC50 [1] [nM] |
| --- | --- | --- |
| 10 to 100 | O=C1CN(c2c(O)cc3ccc(OCCN4CCNC4=O)cc3c2F)S(=O)(=O)N1 [Compound 326, 5-{1-fluoro-3-hydroxy-7-[2-(2-oxoimidazolidin-1-yl)ethoxy]naphthalen-2-yl}-1λ^6,2,5-thiadiazolidine-1,1,3-trione] | < 1 |
| < 1 | O=C1CN(c2c(O)cc3cc(O)c(OCCC4CCCC4)cc3c2F)S(=O)(=O)N1 [Compound 364, 5-[7-(2-cyclopentylethoxy)-1-fluoro-3,6-dihydroxynaphthalen-2-yl]-1λ^6,2,5-thiadiazolidine-1,1,3-trione] | < 1 |
| < 1 | CC(C)(CO)CS(=O)(=O)N1CC=C(c2ccc3cc(O)c(N4CC(=O)NS4(=O)=O)c(F)c3c2)C1 [Compound 344, 5-{1-fluoro-3-hydroxy-7-[1-(3-hydroxy-2,2-dimethylpropane-1-sulfonyl)-2,5-dihydro-1H-pyrrol-3-yl]naphthalen-2-yl}-1λ^6,2,5-thiadiazolidine-1,1,3-trione] | < 1 |
| < 1 | O=C1CN(c2c(O)cc3ccc(C4=CCN(S(=O)(=O)CCCO)C4)cc3c2F)S(=O)(=O)N1 [Compound 369, 5-{1-fluoro-3-hydroxy-7-[1-(3-hydroxypropane-1-sulfonyl)-2,5-dihydro-1H-pyrrol-3-yl]naphthalen-2-yl}-1λ^6,2,5-thiadiazolidine-1,1,3-trione] | < 1 |
| 10 to 100 | CC(C)(C)OC(=O)NCCOc1ccc2c(F)c(N3CC(=O)NS3(=O)=O)c(O)cc2c1 [Compound 336, tert-butyl (2-{[5-fluoro-7-hydroxy-6-(1,1,4-trioxo-1λ^6,2,5-thiadiazolidin-2-yl)naphthalen-2-yl]oxy}ethyl)carbamate] | 10 to 100 |
| 10 to 100 | O=C1CN(c2c(O)cc3cc(OCC4CC4)ccc3c2F)S(=O)(=O)N1 [Compound 338, 5-[6-(cyclopropylmethoxy)-1-fluoro-3-hydroxynaphthalen-2-yl]-1λ^6,2,5-thiadiazolidine-1,1,3-trione] | 10 to 100 |
| < 1 | O=C1CN(c2c(O)cc3cc(O)c(OCCC4CCOC4)cc3c2F)S(=O)(=O)N1 (stereo not shown) [Compound 367, 5-{1-fluoro-3,6-dihydroxy-7-[2-(oxolan-3-yl)ethoxy]naphthalen-2-yl}-1λ^6,2,5-thiadiazolidine-1,1,3-trione] | < 1 |
| 10 to 100 | Nc1ccc2c(F)c(N3CC(=O)NS3(=O)=O)c(O)cc2c1 [Compound 329, 5-(6-amino-1-fluoro-3-hydroxynaphthalen-2-yl)-1λ^6,2,5-thiadiazolidine-1,1,3-trione] | 1 to 10 |

Continued, molecule first:

| SMILES | IC50 [2] [nM] | IC50 [1] [nM] |
| --- | --- | --- |
| CC(C)(O)CCOc1cc2c(F)c(N3CC(=O)NS3(=O)=O)c(O)cc2cc1O [Compound 355, 5-[1-fluoro-3,6-dihydroxy-7-(3-hydroxy-3-methylbutoxy)naphthalen-2-yl]-1λ^6,2,5-thiadiazolidine-1,1,3-trione] | < 1 | < 1 |
| C[C@@](O)(CO)CCOc1ccc2cc(O)c(N3CC(=O)NS3(=O)=O)c(F)c2c1 [Compound 341, 5-{7-[(3S)-3,4-dihydroxy-3-methylbutoxy]-1-fluoro-3-hydroxynaphthalen-2-yl}-1λ^6,2,5-thiadiazolidine-1,1,3-trione] | < 1 | < 1 |
| CC(C)(O)CCOc1ccc2c(F)c(N3CC(=O)NS3(=O)=O)c(O)cc2c1 [Compound 334, 5-[1-fluoro-3-hydroxy-6-(3-hydroxy-3-methylbutoxy)naphthalen-2-yl]-1λ^6,2,5-thiadiazolidine-1,1,3-trione] | > 100 | 10 to 100 |
| C[C@](O)(CC#N)CCOc1ccc2cc(O)c(N3CC(=O)NS3(=O)=O)c(F)c2c1 [Compound 347, (3S)-5-{[8-fluoro-6-hydroxy-7-(1,1,4-trioxo-1λ^6,2,5-thiadiazolidin-2-yl)naphthalen-2-yl]oxy}-3-hydroxy-3-methylpentanenitrile] | 1 to 10 | < 1 |
| CCCCOc1cc2c(F)c(N3CC(=O)NS3(=O)=O)c(O)cc2cc1O [Compound 363, 5-(7-butoxy-1-fluoro-3,6-dihydroxynaphthalen-2-yl)-1λ^6,2,5-thiadiazolidine-1,1,3-trione] | < 1 | < 1 |
| CCC(O)COc1ccc2cc(O)c(N3CC(=O)NS3(=O)=O)c(F)c2c1 (stereo not shown) [Compound 327, 5-[1-fluoro-3-hydroxy-7-(2-hydroxybutoxy)naphthalen-2-yl]-1λ^6,2,5-thiadiazolidine-1,1,3-trione] | < 1 | < 1 |
| O=C1CN(c2c(O)cc3cc(O)c(OCCCC(F)F)cc3c2F)S(=O)(=O)N1 [Compound 365, 5-[7-(4,4-difluorobutoxy)-1-fluoro-3,6-dihydroxynaphthalen-2-yl]-1λ^6,2,5-thiadiazolidine-1,1,3-trione] | < 1 | < 1 |
| O=C1CN(c2c(O)cc3cc(NCCCC(F)F)ccc3c2F)S(=O)(=O)N1 [Compound 330, 5-{6-[(4,4-difluorobutyl)amino]-1-fluoro-3-hydroxynaphthalen-2-y}-1λ^6,2,5-thiadiazolidine-1,1,3-trione] | 10 to 100 | 10 to 100 |
| COc1cc2c(F)c(N3CC(=O)NS3(=O)=O)c(O)cc2cc1O [Compound 357, 5-(1-fluoro-3,6-dihydroxy-7-methoxynaphthalen-2-yl)-1λ^6,2,5-thiadiazolidine-1,1,3-trione] | 1 to 10 | 1 to 10 |
| COc1ccc2c(F)c(N3CC(=O)NS3(=O)=O)c(O)cc2c1 [Compound 335, 5-(1-fluoro-3-hydroxy-6-methoxynaphthalen-2-yl)-11λ^6,2,5-thiadiazolidine-1,1,3-trione] | 10 to 100 | 10 to 100 |
| NCCOc1ccc2c(F)c(N3CC(=O)NS3(=O)=O)c(O)cc2c1 [Compound 337, 5-[6-(2-aminoethoxy)-1-fluoro-3-hydroxynaphthalen-2-yl]-1λ^6,2,5-thiadiazolidine-1,1,3-trione] | 10 to 100 | 10 to 100 |
| O=C1CN(c2c(O)cc3ccc(C4=CCN(CCC5CC5)C4)cc3c2F)S(=O)(=O)N1 [Compound 244, 5-{7-[1-(2-cyclopropylethyl)-2,5-dihydro-1H-pyrrol-3-yl]-1-fluoro-3-hydroxynaphthalen-2-yl}-1λ^6,2,5-thiadiazolidine-1,1,3-trione] |  | 10 to 100 |
| CC1(CCOc2cc3c(F)c(N4CC(=O)NS4(=O)=O)c(O)cc3cc2O)CC1 [Compound 386, 5-{1-fluoro-3,6-dihydroxy-7-[2-(1-methylcyclopropyl)ethoxy]naphthalen-2-yl}-1λ^6,2,5-thiadiazolidine-1,1,3-trione] |  | < 1 |
| O=C1CN(c2c(O)cc3ccc(OCCNCC(F)(F)F)cc3c2F)S(=O)(=O)N1 [Compound 390, 5-(1-fluoro-3-hydroxy-7-{2-[(2,2,2-trifluoroethyl)amino]ethoxy}naphthalen-2-yl)-1λ^6,2,5-thiadiazolidine-1,1,3-trione] |  | 1 to 10 |
| O=C1CN(c2c(O)cc3ccc(OCCN4CCC(F)(F)C4)cc3c2F)S(=O)(=O)N1 [Compound 383, 5-{7-[2-(3,3-difluoropyrrolidin-1-yl)ethoxy]-1-fluoro-3-hydroxynaphthalen-2-yl}-1λ^6,2,5-thiadiazolidine-1,1,3-trione] |  | 1 to 10 |
| O=C1CN(c2c(O)cc3ccc(OCCCC(F)F)cc3c2F)S(=O)(=O)N1 [Compound 372, 5-[7-(4,4-difluorobutoxy)-1-fluoro-3-hydroxynaphthalen-2-yl]-1λ^6,2,5-thiadiazolidine-1,1,3-trione] |  | < 1 |
